This note sets out measurements from ChEMBL document CHEMBL5331047 (Eur J Med Chem, 2022).

A short description of data set [1]: Cmax in rat at 20 mg/kg. The format is ADME, organism-based. Also on record: dose 20 mg/kg. The note with it: in vivo.
Data set [2] is described as follows: AUC in rat at 20 mg/kg. The format is ADME, organism-based. Also noted: dose 20 mg/kg. The note with it: in vivo.
A further data set concerns Influenza A virus. The experiment in a line: Antiviral activity against influenza A virus H5N1 infected in dog MDCK cells assessed as viral growth inhibition. It counts as functional, organism-based.
Data set [3] in a line: Cmax in rat at 10 mg/kg. The format is ADME, organism-based. Also noted: dose 10 mg/kg. The note with it: in vivo.
The nature of data set [4]: AUC in rat at 10 mg/kg. The format is ADME, organism-based. Also on record: dose 10 mg/kg. Particulars: in vivo.
For a further data set, the target named is Neuraminidase (Influenza A virus, UniProt B4URF0).
Data set [5] can be described thus: Oral bioavailability in ferret at 10 mg/kg measured upto 24 hrs by LC-MS/MS assay. The format is ADME, organism-based, Mustela putorius furo. Particulars: in vivo.
Data set [6] can be described thus: Oral bioavailability in rat. It counts as ADME, organism-based. The note with it: in vivo.

As to `CCC(CC)O[C@@H]1C=C(C(=O)O)C[C@H](NCc2ccc(Sc3ccccc3)cc2)[C@H]1NC(C)=O`, the Cmax (commonly the peak of the concentration-time curve) in data set [1] was 407 ng/mL. Besides, the AUC (commonly the area under the concentration-time curve, a measure of exposure) in data set [2] worked out at 1500 ng·h/mL. For `CCC(CC)O[C@@H]1C=C(C(=O)O)C[C@H](NC(=O)COCCOCCOCCOCCN[C@H](C(=O)N2C[C@H](O)CC2C(=O)NCc2ccc(-c3scnc3C)cc2)C(C)(C)C)[C@H]1NC(C)=O` (some centres undefined), the EC50 (as a rule, the midpoint of the concentration-response curve) with Influenza A virus is 290 nM. As for `CCC(CC)O[C@@H]1C=C(C(=O)O)CC(N)[C@H]1NC(C)=O` (some centres undefined), in data set [3], the Cmax was determined as 30 ng/mL. This compound yielded an AUC in data set [4] of 300 ng·h/mL. Besides, in the data set with Influenza A virus, the EC50 amounted to 2300 nM. `CC(=O)N[C@@H]1[C@@H](N)CC(C(=O)O)=C[C@H]1OC1CCSC1` (some centres undefined): on Neuraminidase, the concentration for half-maximal inhibition (IC50) (in general, the midpoint of a concentration-inhibition curve) was found to be 2.9 nM. Take `CCCCCCCC(=O)OC[C@@H](O)[C@@H](OC)[C@@H]1OC(C(=O)O)=C[C@H](NC(=N)N)[C@H]1NC(C)=O` [LANINAMIVIR OCTANOATE]: the bioavailability (usually the share of a dose that reaches the circulation, judged against a reference dose that is usually intravenous) in data set [5] turned out to be 3.5%. `CCC(CC)[C@H](NC(C)=O)[C@@H]1[C@H](O)[C@@H](C(=O)O)C[C@H]1NC(=N)N` [PERAMIVIR ANHYDROUS] showed a bioavailability in data set [6] of 2.5%.
